{"source": "paper PMC9671962", "about": "(Communications Biology, 2022)", "key": {"COG-N-519x": {"test_system": "COG-N-519x", "assay": "Pre-clinical efficacy study, COG-N-519x PDX", "type": "in vivo", "conditions": "single mouse", "procedure": "Patient demographics and genetic characteristics are listed in (Supplementary Tables 1, 2)[17]. The maximum tolerated dose (MTD) was determined to be 36 MBq/kg administered by intra-peritoneal injection twice weekly for a total of 4 dose fractions and this fractionated regimen was used in all studies (Supplementary Fig. 1)[18],[19]. […] Nine of 11 PDX models were MYCN amplified (Fig. 1b), which is a hallmark of high-risk neuroblastoma. Tumor response was measured as the maximum percent decrease in tumor volume after treatment and event-free survival (EFS) was measured by the area over the curve method with tumor events pre-defined by tumor growth exceeding 2 cm[3],[18].\nThe use of 2 mice per arm was based on the previously reported statistical analysis. PDX tumors were implanted into the right flank of 5 to 6-weeks old female mice weighing about 20–25 grams. […] Two additional dose levels of 12, and 24 MBq/kg/fraction were assessed in a subset of models and were administered as stated above. In two models treated at the 24 MBq/kg/fraction dose level we re-challenged tumor response at the time of tumor progression with an additional 4 dose fractions at 24 MBq/kg/fraction given twice weekly. Doses were prepared in 500 µL total volume. An equal volume of saline was used for the vehicle group. Tumors were measured using a digital caliper at the initiation of the study and two times per week during the treatment period. Tumor volumes were calculated as volume = ([…]∗0.5236)/1000. Weights were obtained twice weekly and mice were monitored daily for signs of toxicity. […] Tumor response was assessed by best response defined as greatest reduction in tumor volume following the last dose and is presented as percent change in tumor volume. Event-free survival was determined by area over the curve method that calculates the time to tumor event, which was defined as tumors reaching or exceeding a size ≥ 2 cm^3.\nAnimal studies were performed in female mice due to the lack of sex-related differences for [^211At]PTT tolerability from initial dose response studies performed in female and male mice. Female mice were chosen due to their underlying behavior towards other study subjects that reduced nonstudy-related causes for decreased wellness. Pre-clinical efficacy studies were performed through “single mouse testing” to more closely recapitulate a clinical trial. […] Number size for treatment groups was determined by model tumor growth reproducibility, which was previously shown to have less than 5% normal variation with at least two animals. Statistical tests for tumor response and event-free survival (EFS) were performed as a grouped analysis that included all tumor models treated at each respective dose level (n = 2 per model per dose level). Statistical differences between treatment groups for tumor response was performed by paired-model T-test that compared reduction in tumor volume for the 36 MBq/kg dose level vs. 24 MBq/kg or 12 MBq/kg. Event free survival was measured by area over the curve method to quantify time to event, which was set as tumor growth exceeding 2 cm[3],[19]. Differences in EFS were tested across all treated models for each respective dose level, and against untreated controls, by paired-model ANOVA analysis. Associations of drug target expression and response were performed by linear regression analysis of EFS and PARP1 mRNA expression. Genetic signatures were visually presented as a function of EFS and no statistical tests were applied. Blood and marrow toxicity studies were performed with n = 5 sample sizes and powered to detect >20% differences between untreated controls and treated animals. Results were tested for significance by one-way ANOVA comparison from untreated controls. Marrow colony formation assays were performed in replicates of 2 for each mouse subject, dependent on marrow isolation, and all replicates are included in final analyses. […]"}, "NB-EBC1x tumor": {"test_system": "NB-EBC1x tumor", "assay": "Biodistribution, autoradiography and tumor dosimetry in NB-EBC1x tumor-bearing mice", "type": "in vivo, female SCID CB17 mice", "conditions": "for %Injected Dose/gram, tumor: NB-EBC1 tumor, single mouse", "procedure": "At various time points mice were euthanized and tissues were harvested, weighed, and assayed for radioactivity by gamma counter. Decay corrected data presented as percent injected dose per gram of tissue (%ID/g). Human dosimetry was calculated using OLINDA/EXM software by fitting time activity curves for biodistribution data. Tissue autoradiography was performed by freezing excised tumors at 1 h postinjection of each respective treatment. One tumor was collected for each treatment group. Tumors were cryosectioned (Leica Cryotome) at a thickness of 20 µm. Each section was collected with a 200 µm gap and a total of three sections were collected for each tumor. Sections were then exposed to a phosphorfilm for 60 h and films were read on a Cyclone Plus phosphorimager (Perkin Elmer). Experimental conditions have been included in the Supplementary Methods.\nAnimal studies were performed in female mice due to the lack of sex-related differences for [^211At]PTT tolerability from initial dose response studies performed in female and male mice. Female mice were chosen due to their underlying behavior towards other study subjects that reduced nonstudy-related causes for decreased wellness. Pre-clinical efficacy studies were performed through “single mouse testing” to more closely recapitulate a clinical trial. […] Number size for treatment groups was determined by model tumor growth reproducibility, which was previously shown to have less than 5% normal variation with at least two animals. Statistical tests for tumor response and event-free survival (EFS) were performed as a grouped analysis that included all tumor models treated at each respective dose level (n = 2 per model per dose level). Statistical differences between treatment groups for tumor response was performed by paired-model T-test that compared reduction in tumor volume for the 36 MBq/kg dose level vs. 24 MBq/kg or 12 MBq/kg. Event free survival was measured by area over the curve method to quantify time to event, which was set as tumor growth exceeding 2 cm[3],[19]. Differences in EFS were tested across all treated models for each respective dose level, and against untreated controls, by paired-model ANOVA analysis. Associations of drug target expression and response were performed by linear regression analysis of EFS and PARP1 mRNA expression. Genetic signatures were visually presented as a function of EFS and no statistical tests were applied. Blood and marrow toxicity studies were performed with n = 5 sample sizes and powered to detect >20% differences between untreated controls and treated animals. Results were tested for significance by one-way ANOVA comparison from untreated controls. Marrow colony formation assays were performed in replicates of 2 for each mouse subject, dependent on marrow isolation, and all replicates are included in final analyses. Statistical analysis was performed by ordinary one-way ANOVA comparison between the mean of control and test groups. Biodistribution studies were performed with n = 3 mice per time-point. Human dosimetry was calculated using OLINDA/EXM v1.1 software by fitting time activity curves for biodistribution data in a healthy mouse model. Tumor dosimetry was calculated by OLINDA/EXM v1.1 by fitting time activity curves for NB-EBC1 tumors from biodistribution data. All statistical analyses were performed in GraphPad Prism version 9.3.1 unless indicated otherwise."}, "PARP1": {"test_system": "PARP1", "assay": "Clinical PET imaging / first-in-human dosimetry of [^18F]FTT and extrapolation to [^211At]PTT", "type": "in vivo"}, "[1]": {"conditions": "12 MBq/kg/fraction x 4 fractions"}, "[2]": {"conditions": "24 MBq/kg/fraction x 4 fractions"}, "[3]": {"conditions": "36 MBq/kg/fraction x 4 fractions"}}, "note": "Where “and” joins values, the source holds several entries; their conditions need not be identical. Equal values may be shown once.", "data": [{"smiles": "O=C1NCCn2c(-c3ccc([211At])cc3)nc3cccc1c32", "note": "[[^211At]PTT, Astatine-211-parthanatine]", "values": [{"measurement": "EFS by AOC method", "setting": "COG-N-519x; [1]", "value": "22.7688 days and 33.292 days"}, {"measurement": "Tumor response (% growth from study initiation at ~ 200 mm3)", "setting": "COG-N-519x; [1]", "value": "-46.1538% and -36.8421%"}, {"measurement": "EFS by AOC method", "setting": "COG-N-519x; [2]", "value": "28.2857 days and 42.6471 days"}, {"measurement": "Tumor response (% growth from study initiation at ~ 200 mm3)", "setting": "COG-N-519x; [2]", "value": "-83.871% and -100%"}, {"measurement": "EFS by AOC method", "setting": "COG-N-519x; [3]", "value": "82.4 Days and 100. 5 Days and 82.4108 Days and 100.511 Days"}, {"measurement": "Tumor response (% growth from study initiation at ~ 200 mm3)", "setting": "COG-N-519x; [3]", "value": -100, "unit": "%"}, {"measurement": "average tumor dose", "setting": "NB-EBC1x tumor; 1-year-old phantom, derived from NB-EBC1 tumor-bearing mouse model", "value": 0.060, "unit": "Gy per MBq/kg"}, {"measurement": "thyroid uptake with co-administration of potassium iodide", "setting": "NB-EBC1x tumor; 1 h", "value": "partially blocked"}, {"measurement": "Absorbed Dose, Tumor", "setting": "NB-EBC1x tumor; NB-EBC1 tumor-bearing CB57 SCID mice, three values", "value": "4.5716 cGy/MBq/kg and 5.9806 cGy/MBq/kg and 7.417 cGy/MBq/kg"}, {"measurement": "%Injected Dose/gram, tumor", "setting": "NB-EBC1x tumor; time point 0.5", "value": "2.4065 %ID/g and 3.551 %ID/g and 6.66 %ID/g"}, {"measurement": "%Injected Dose/gram, tumor", "setting": "NB-EBC1x tumor; time point 1", "value": "8.705 %ID/g and 13.3276 %ID/g and 24.86 %ID/g"}, {"measurement": "%Injected Dose/gram, tumor", "setting": "NB-EBC1x tumor; time point 6", "value": "7.986 %ID/g and 8.236 %ID/g and 8.192 %ID/g"}, {"measurement": "%Injected Dose/gram, tumor", "setting": "NB-EBC1x tumor; time point 24", "value": "0.008485 %ID/g and 1.144 %ID/g and 1.578 %ID/g"}, {"measurement": "tumor penetrance by ex-vivo autoradiography", "setting": "NB-EBC1x tumor; NB-EBC1 tumors, 1 h postinjection", "value": "high tumor penetrance"}, {"measurement": "tumor dosimetry (estimated)", "setting": "NB-EBC1x tumor; NB-EBC1x tumor-bearing mouse model", "value": 6, "unit": "cGy/MBq/kg"}, {"measurement": "cumulative absorbed dose to tumor", "setting": "NB-EBC1x tumor; NB-EBC1x, after 4 dose fractions of 36 MBq/kg", "value": 8.6, "unit": "Gy"}, {"measurement": "absorbed dose to tumor per dose fraction", "setting": "NB-EBC1x tumor; NB-EBC1x, per 36 MBq/kg dose", "value": 2.15, "unit": "Gy"}, {"measurement": "biological half-life in tumor", "setting": "NB-EBC1x tumor; seen in mice in the present study", "value": 5.1, "unit": "hr"}, {"measurement": "extrapolated equivalent dose to the kidneys", "setting": "PARP1; RBE of 5 for alpha radiation", "value": "approximately 2 mSv/MBq"}, {"measurement": "estimated SUVmax in neuroblastoma tumors", "setting": "PARP1; estimate from [^18F]FTT clinical data and pre-clinical uptake", "value": "approximately 10"}, {"measurement": "rough estimate of absorbed tumor dose", "setting": "PARP1; patient, biological half-life 5.1 hr and SUVmax of 10", "value": 0.17, "unit": "Gy per MBq/kg"}, {"measurement": "estimated renal absorbed dose", "setting": "PARP1; using human biodistribution results of [^18F]FTT in adults", "value": "0.25–0.41 mGy/MBq"}]}]}
